Results published in patent US20240287138A1, “CYCLIC PEPTIDES FOR INHIBITING TNF RECEPTOR 1 ACTIVITY” (Merck Sharp & Dohme LLC, priority 2023, published 2024).
pIC50, pKd: −log10 of the molar value. Numbered stars: 1 amine (or outer) side, 2 acyl side, 3 side chain; on linkers, the order of the positions; unused ones are H or OH. Bridge positions count the residues as written; N and C are the ends. Square brackets hold non-standard residues; d marks the D form. Peptide text beside a SMILES is read from it. Trp(βS-Me,7-OMe) = COc1cccc2c([C@H](C)[C@H](N)C(=O)O)c[nH]c12; Ala(1-bicyclo(1.1.1)pentyl) = N[C@@H](CC12CC(C1)C2)C(=O)O; Phe(3-CH2NH2) = O=C([C@H](Cc1cccc(CN[*:3])c1)N[*:1])[*:2]; Phe(4-CH2COOH) = N[C@@H](Cc1ccc(CC(=O)O)cc1)C(=O)O; Trp(4-Cl) = N[C@@H](Cc1c[nH]c2cccc(Cl)c12)C(=O)O; Trp(7-Cl) = N[C@@H](Cc1c[nH]c2c(Cl)cccc12)C(=O)O; Phe(4-CONH2) = NC(=O)c1ccc(C[C@H](N)C(=O)O)cc1; Phe(4-COOH) = N[C@@H](Cc1ccc(C(=O)O)cc1)C(=O)O; Trp(7-aza) = N[C@@H](Cc1c[nH]c2ncccc12)C(=O)O; Phe(4-CH2NH2) = NCc1ccc(C[C@H](N)C(=O)O)cc1; Trp(1-Me) = Cn1cc(C[C@H](N)C(=O)O)c2ccccc21; Pip(5R-OH) = O=C(O)[C@@H]1CC[C@@H](O)CN1; αMeW = C[C@](N)(Cc1c[nH]c2ccccc12)C(=O)O; X1 = O=C([C@@H]1CC[C@H](N[*:1])C1)[*:2]; 1Nal = N[C@@H](Cc1cccc2ccccc12)C(=O)O; 2Nal = N[C@@H](Cc1ccc2ccccc2c1)C(=O)O; N(CH2CH2COOH)Gly = O=C(O)CCNCC(=O)O; 4Pal = N[C@@H](Cc1ccncc1)C(=O)O; NMeE = CN[C@@H](CCC(=O)O)C(=O)O; NMeN = CN[C@@H](CC(N)=O)C(=O)O; Pip = O=C(O)[C@@H]1CCCCN1; αMeS = C[C@](N)(CO)C(=O)O; NMeA = CN[C@@H](C)C(=O)O; Nle = CCCC[C@H](N)C(=O)O; Sar = CNCC(=O)O

Tests used:
[1] = target: T1, TNFα-induced NF-κB signal transduction pathway (TNFR1 signaling) in THP-1 cells (Homo sapiens, UniProt P19438); assay: THP-1 Lucia NF-κB reporter cell assay, inhibition of TNFα-induced NF-κB signaling; assay type: cell-based; conditions: THP-1 NF-κB Lucia reporter cells, 10 ng/mL TNFα, 16-18 h, secreted luciferase; read-out: THP-1 IC50
T1 sequence (P19438 30-455): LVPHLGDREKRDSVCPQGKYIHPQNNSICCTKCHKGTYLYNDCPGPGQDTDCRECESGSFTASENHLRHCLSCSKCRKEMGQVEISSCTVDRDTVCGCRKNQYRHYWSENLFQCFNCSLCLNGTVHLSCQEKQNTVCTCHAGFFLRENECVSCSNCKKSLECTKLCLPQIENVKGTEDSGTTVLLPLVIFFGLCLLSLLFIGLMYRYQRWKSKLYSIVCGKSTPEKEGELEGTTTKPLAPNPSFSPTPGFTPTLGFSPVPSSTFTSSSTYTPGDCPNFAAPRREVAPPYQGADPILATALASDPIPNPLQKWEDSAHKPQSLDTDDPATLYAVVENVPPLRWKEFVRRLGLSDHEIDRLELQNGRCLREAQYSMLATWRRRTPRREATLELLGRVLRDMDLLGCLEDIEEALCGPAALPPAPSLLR
Method in brief: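 IC50 from a 4-parameter logistic fit of secreted luciferase luminescence (QUANTI-Luc), normalised to min/max controls. Reporter THP-1 cells were exposed to peptides for 1 h at 37 °C before 10 ng/mL TNFα (final) was added overnight (16–18 h).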

[2] = target: T2, human TNFR1 extracellular domain (ECD) protein (Homo sapiens, UniProt P19438); assay: SPR binding affinity to captured human TNFR1 ECD
T2 construct: HRV 3C protease cleavage site (C); 6His (C, cleaved yes); made in house; host or cells: Sf21 insect cells (baculovirus), secreted
T2 sequence (P19438 30-211): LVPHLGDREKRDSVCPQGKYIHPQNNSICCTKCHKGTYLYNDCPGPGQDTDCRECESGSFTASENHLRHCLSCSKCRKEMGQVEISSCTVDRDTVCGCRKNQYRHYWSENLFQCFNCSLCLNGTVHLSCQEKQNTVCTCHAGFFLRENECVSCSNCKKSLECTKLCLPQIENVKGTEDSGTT
Method in brief: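 Read-out: kon, koff and derived affinity from SPR response units. Human TNFR1 and TNFR2 ECD, Avi-tag biotinylated with BirA, captured on a streptavidin surface; peptides injected under laminar flow in HEPES-saline with EDTA, P20 and 2% DMSO.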

Compound | pIC50 [1] | pKd [2]
CCCC[C@@H]1NC(=O)CSC[C@@H](C(N)=O)NC(=O)[C@H]([C@@H](C)c2c[nH]c3c(OC)cccc23)NC(=O)CN(C)C(=O)[C@H](Cc2ccc(O)cc2)NC(=O)[C@H](Cc2ccc(C(=O)O)cc2)NC(=O)[C@](C)(CO)NC(=O)[C@H](Cc2c[nH]c3c(Cl)cccc23)NC(=O)[C@H](Cc2ccncc2)NC(=O)[C@H](CC(N)=O)NC(=O)CN(CCC(=O)O)C(=O)[C@H](Cc2c[nH]c3ncccc23)NC(=O)[C@@H]2CCCCN2C(=O)[C@H](Cc2ccncc2)NC1=O [SEQ ID NO. 220] ({CH2CO}-[Nle][4Pal][Pip][Trp(7-aza)][N(CH2CH2COOH)Gly]N[4Pal][Trp(7-Cl)][αMeS][Phe(4-COOH)]Y[Sar][Trp(βS-Me,7-OMe)]C-NH2; thioether N-14) | 8.54 | 9.60
CN1CC(=O)N[C@@H](Cc2c[nH]c3cccc(Cl)c23)C(=O)N[C@H](C(N)=O)CSCC(=O)N[C@@H](CC23CC(C2)C3)C(=O)N[C@@H](Cc2cccc(CN)c2)C(=O)N[C@@H](CO)C(=O)N[C@@H](Cc2c[nH]c3c(Cl)cccc23)C(=O)N2CCC[C@@H]2C(=O)N(C)[C@@H](CC(N)=O)C(=O)N[C@@H](Cc2ccc(C(=O)O)cc2)C(=O)N[C@@H](Cc2c[nH]c3c(Cl)cccc23)C(=O)N[C@@](C)(CO)C(=O)N[C@@H](Cc2ccc(C(=O)O)cc2)C(=O)N[C@@H](Cc2cccc(CN)c2)C1=O [SEQ ID NO. 222] ({CH2CO}-[Ala(1-bicyclo(1.1.1)pentyl)][Phe(3-CH2NH2)]S[Trp(7-Cl)][dP][NMeN][Phe(4-COOH)][Trp(7-Cl)][αMeS][Phe(4-COOH)][Phe(3-CH2NH2)][Sar][Trp(4-Cl)]C-NH2; thioether N-14) | 8.24 | 9.74
CCCC[C@@H]1NC(=O)CSC[C@@H](C(N)=O)NC(=O)[C@H](Cc2cn(C)c3ccccc23)NC(=O)CN(C)C(=O)[C@H](Cc2ccc(O)cc2)NC(=O)[C@H](Cc2ccc(C(=O)O)cc2)NC(=O)[C@](C)(CO)NC(=O)[C@H](Cc2c[nH]c3c(Cl)cccc23)NC(=O)[C@H](Cc2ccncc2)NC(=O)[C@H](CC(N)=O)NC(=O)[C@H](CCC(=O)O)N(C)C(=O)[C@H](Cc2c[nH]c3ncccc23)NC(=O)[C@H](CO)NC(=O)[C@H](Cc2ccncc2)NC1=O [SEQ ID NO. 223] ({CH2CO}-[Nle][4Pal]S[Trp(7-aza)][NMeE]N[4Pal][Trp(7-Cl)][αMeS][Phe(4-COOH)]Y[Sar][Trp(1-Me)]C-NH2; thioether N-14) | 8.54 | 9.52
CCCC[C@@H]1NC(=O)CSC[C@@H](C(N)=O)NC(=O)[C@](C)(Cc2c[nH]c3ccccc23)NC(=O)CN(C)C(=O)[C@H](Cc2ccc(O)cc2)NC(=O)[C@H](Cc2ccc(CC(=O)O)cc2)NC(=O)[C@](C)(CO)NC(=O)[C@H](Cc2c[nH]c3c(Cl)cccc23)NC(=O)[C@H](Cc2ccncc2)NC(=O)[C@H](CC(N)=O)NC(=O)[C@H](CCC(=O)O)N(C)C(=O)[C@H](Cc2c[nH]c3ncccc23)NC(=O)[C@H](CO)NC(=O)[C@H](Cc2ccc(CN)cc2)NC1=O [SEQ ID NO. 224] ({CH2CO}-[Nle][Phe(4-CH2NH2)]S[Trp(7-aza)][NMeE]N[4Pal][Trp(7-Cl)][αMeS][Phe(4-CH2COOH)]Y[Sar][αMeW]C-NH2; thioether N-14) | 8.32 | 9.40
C[C@H]1C(=O)N[C@@H](CC(N)=O)C(=O)N[C@@H](Cc2ccncc2)C(=O)N[C@@H](Cc2ccc3ccccc3c2)C(=O)N[C@@](C)(CO)C(=O)N[C@@H](Cc2ccc(C(=O)O)cc2)C(=O)N[C@@H](Cc2ccc(O)cc2)C(=O)N(C)CC(=O)N[C@@H](Cc2c[nH]c3ccccc23)C(=O)N[C@H](C(N)=O)CSCC(=O)N[C@@H](CCCCN)C(=O)N[C@@H](Cc2ccncc2)C(=O)N[C@@H](CO)C(=O)N[C@@H](Cc2cccc3ccccc23)C(=O)N1C [SEQ ID NO. 227] ({CH2CO}-K[4Pal]S[1Nal][NMeA]N[4Pal][2Nal][αMeS][Phe(4-COOH)]Y[Sar]WC-NH2; thioether N-14) | 7.87 | 8.64
CCCC[C@@H]1NC(=O)[C@@H]2CC[C@@H](C2)NC(=O)[C@H]([C@@H](C)c2c[nH]c3c(OC)cccc23)NC(=O)CN(C)C(=O)[C@H](Cc2ccc(C(N)=O)cc2)NC(=O)[C@H](Cc2ccc(C(N)=O)cc2)NC(=O)[C@](C)(CO)NC(=O)[C@H](Cc2c[nH]c3c(Cl)cccc23)NC(=O)[C@H](Cc2ccncc2)NC(=O)[C@H](CC(N)=O)NC(=O)[C@H](CCC(=O)O)N(C)C(=O)[C@H](Cc2c[nH]c3ccccc23)NC(=O)[C@@H]2CC[C@@H](O)CN2C(=O)[C@H](Cc2ccncc2)NC1=O [SEQ ID NO. 229] (cyclo([4Pal][Trp(7-Cl)][αMeS][Phe(4-CONH2)][Phe(4-CONH2)][Sar][Trp(βS-Me,7-OMe)][X1][Nle][4Pal][Pip(5R-OH)]W[NMeE]N)) | 9.30 | 9.85
